ChEMBL document CHEMBL1153339, “Design, synthesis, and anti-HCV activity of thiourea compounds” (Bioorg Med Chem Lett, 2009)

Experiments:
Hepatitis C virus = test: Antiviral activity against HCV 1b infected in human Ava5 cells expressing EG(delta-4AB)SEAP fusion protein by subgenomic replicon assay; format: functional, organism-based, Hepacivirus hominis; settings: genotype 1b
[1] = Cytotoxicity against human Ava5 cells; format: cell-based
[2] = Selectivity index, ratio of CC50 for human Ava5 cells to EC50 for HCV 1b

Compound | EC50 (Hepatitis C virus) [nM] | CC50 [1] [nM] | Ratio CC50/EC50 [2]
NC(=S)Nc1cccc(OCCCCCOc2cccc(Cc3ccccc3)c2)c1 | 58 | 13000 | 224
NC(=S)Nc1cccc(OCCCCc2ccccc2)c1 | 159 | > 50000 | >314
NC(=S)Nc1ccccc1OCCCCCc1ccccc1 | 1010 | 31000 | 31
NC(=S)Nc1cccc(OCc2ccccc2)c1 | 561 | > 50000 | >89
NC(=S)Nc1cccc(OCCCCCc2ccccc2)c1 | 48 | 22000 | 458
CNC(=S)Nc1cccc(OCCCCCc2ccccc2)c1 | 822 | > 50000 | >61
S=C(Nc1ccccc1)Nc1cccc(OCCCCCc2ccccc2)c1 | 31500 | 35000 | 1
CCNC(=S)Nc1cccc(OCCCCCc2ccccc2)c1 | 685 | > 50000 | >73
S=C(NCc1ccccc1)Nc1cccc(OCCCCCc2ccccc2)c1 | 7240 | 32000 | 4
NC(=S)Nc1cccc(OCCCc2ccccc2)c1 | 231 | > 50000 | >216
NC(=S)Nc1cccc(NCCCCCc2ccccc2)c1 | 143 | > 50000 | >350
NC(=S)Nc1cccc(OCCCCCOc2ccnc3ccccc23)c1 | 411 | 24000 | 58
NC(=S)Nc1cccc(OCCCCCOc2ccc(N3CCCCC3)cc2)c1 | 407 | 12000 | 29
NC(=S)Nc1cccc(OCCCCCOc2ccncc2)c1 | 2990 | > 50000 | >17
NC(=S)Nc1cccc(OCCCCCOc2ccccc2-c2ccccc2)c1 | 97 | 13000 | 134
NC(=S)Nc1cccc(OCCCCCOc2cccc(Oc3ccccc3)c2)c1 | 107 | 18000 | 168
NC(=S)Nc1cccc(OCCCCCOc2ccc(F)cc2)c1 | 72 | 5000 | 69
NC(=S)Nc1cccc(OCCCCCCCc2ccccc2)c1 | 97 | 23000 | 237
NC(=S)Nc1cccc(OCCCCCOc2ccc(-c3ccco3)cc2)c1 | 136 | 11000 | 81
NC(=S)Nc1cccc(OCCCCCOc2ccc(C(=O)O)cc2)c1 | > 50000 | > 50000 | >1
CCCNC(=S)Nc1cccc(OCCCCCc2ccccc2)c1 | 708 | 32000 | 45
NC(=S)Nc1cccc(OCCCCCOc2ccc(N3CCCC3)cc2)c1 | 913 | 16000 | 18
NC(=S)Nc1cccc(OCCCCCOc2ccc(-c3ccccc3)cc2)c1 | 191 | > 50000 | >262
NC(=S)Nc1cccc(OCCCCCOc2ccc(Cl)cc2)c1 | 72 | 7000 | 97

Compound | EC50 (Hepatitis C virus) [nM] | CC50 [1] [nM] | Ratio CC50/EC50 [2]
NC(=S)Nc1cccc(OCCCCCOc2cccnc2)c1 | 1130 | > 50000 | >44
NC(=S)Nc1cccc(OCCCCCOc2cccc3ncccc23)c1 | 250 | 15000 | 60
NC(=S)Nc1cccc(OCCCCCOc2cccc3ccccc23)c1 | 58 | 14000 | 241
NC(=S)Nc1cccc(OCCCCCOc2ccc(Br)cc2)c1 | 72 | 19000 | 264
NC(=S)Nc1cccc(OCCCCCOc2cccc3[nH]ccc23)c1 | 355 | > 50000 | >141
NC(=S)Nc1cccc(OCCCCCOc2ccc(N3CCOCC3)cc2)c1 | 485 | > 50000 | >103
CC(C)(CCOc1ccccc1)CCOc1cccc(NC(N)=S)c1 | 105 | 13000 | 124
CC(CCOc1ccccc1)CCOc1cccc(NC(N)=S)c1 (stereo unspecified) | 104 | > 50000 | >481
S=C(NCCc1ccccc1)Nc1cccc(OCCCCCc2ccccc2)c1 | 13400 | 33000 | 2
NC(=S)Nc1cccc(OCCCCCOc2cccc(C(=O)c3ccccc3)c2)c1 | 218 | 13000 | 60
NC(=S)Nc1cccc(OCCCCCOc2cccc(Nc3ccccc3)c2)c1 | 177 | 11000 | 62
NC(=S)Nc1cccc(OCCCCCOc2ccccn2)c1 | 279 | > 50000 | >179
NC(=S)Nc1cccc(OCCCCCOc2ccc(-c3cccs3)cc2)c1 | 121 | > 50000 | >413
NC(=S)Nc1ccc(OCCCCCc2ccccc2)cc1 | 197 | 10000 | 51
NC(=S)Nc1cccc(OCCCCCOc2ccccc2)c1 | 59 | > 50000 | >847
NC(=S)Nc1cccc(Oc2ccccc2)c1 | 494 | > 50000 | >101
NC(=S)Nc1cccc(OCCCCCOc2cccc(-c3ccccc3)c2)c1 | 214 | 13000 | 61
NC(=S)Nc1cccc(OCCCCCOc2ccc(-n3cccc3)cc2)c1 | 255 | > 50000 | >196
NC(=S)Nc1cccc(OCCCCCCc2ccccc2)c1 | 47 | 28000 | 596
NC(=S)Nc1cccc(OCCCCCOc2cccc3cnccc23)c1 | 481 | 26000 | 54
COc1ccc(OCCCCCOc2cccc(NC(N)=S)c2)cc1 | 218 | > 50000 | >229
CCN(CC)c1ccc(OCCCCCOc2cccc(NC(N)=S)c2)cc1 | 594 | > 50000 | >84
NC(=S)Nc1cccc(OCCc2ccccc2)c1 | 335 | > 50000 | >149
